Experimental data from ChEMBL document CHEMBL5506022, “Discovery of Novel Dual Inhibitors Targeting Mutant IDH1 and NAMPT for the Treatment of Glioma with IDH1Mutation” (J Med Chem, 2024).
Activity calls are given as the source filed them. The rule behind the calls is not given here.

Legend:
[1] = molecular target: Isocitrate dehydrogenase [NADP] cytoplasmic (Homo sapiens, UniProt O75874, R132C); assay: Inhibition of recombinant IDH1 R132C mutant (unknown origin) using alpha-ketoglutarate as substrate incubated for 60 mins in presence of NADPH by fluorescence microplate reader
Isocitrate dehydrogenase [NADP] cytoplasmic (Homo sapiens, UniProt O75874, R132C), sequence (O75874 2-414 R132C limits assumed): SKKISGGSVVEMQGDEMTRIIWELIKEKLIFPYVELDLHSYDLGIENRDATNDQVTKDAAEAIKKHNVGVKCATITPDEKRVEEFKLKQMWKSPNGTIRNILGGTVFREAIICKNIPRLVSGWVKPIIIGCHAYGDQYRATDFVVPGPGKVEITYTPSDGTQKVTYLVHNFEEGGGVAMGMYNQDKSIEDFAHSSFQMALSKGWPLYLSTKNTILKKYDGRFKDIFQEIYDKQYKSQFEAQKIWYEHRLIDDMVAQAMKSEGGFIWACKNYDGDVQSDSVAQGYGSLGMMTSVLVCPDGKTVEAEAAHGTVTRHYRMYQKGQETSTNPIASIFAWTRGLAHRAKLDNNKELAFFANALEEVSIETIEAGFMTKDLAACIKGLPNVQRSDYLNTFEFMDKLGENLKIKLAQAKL

[2] = molecular target: Isocitrate dehydrogenase [NADP] cytoplasmic (Homo sapiens, UniProt O75874); assay: Inhibition of wildtype IDH1 (unknown origin) using DL-isocitrate as substrate incubated for 60 mins in presence of NADP by fluorescence microplate reader
Isocitrate dehydrogenase [NADP] cytoplasmic (Homo sapiens, UniProt O75874), sequence (O75874 whole entry): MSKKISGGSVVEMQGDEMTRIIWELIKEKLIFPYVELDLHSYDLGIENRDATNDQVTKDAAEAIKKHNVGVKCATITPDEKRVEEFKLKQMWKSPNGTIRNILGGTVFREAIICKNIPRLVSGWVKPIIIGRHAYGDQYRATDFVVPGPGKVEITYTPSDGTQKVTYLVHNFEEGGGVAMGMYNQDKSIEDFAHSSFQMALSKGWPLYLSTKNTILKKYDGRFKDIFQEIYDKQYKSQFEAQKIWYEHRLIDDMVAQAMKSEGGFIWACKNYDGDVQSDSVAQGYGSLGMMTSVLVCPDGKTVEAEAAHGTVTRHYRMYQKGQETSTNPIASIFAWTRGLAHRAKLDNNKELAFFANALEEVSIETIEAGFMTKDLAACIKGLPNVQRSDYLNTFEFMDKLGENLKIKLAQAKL

[3] = molecular target: Nicotinamide phosphoribosyltransferase (Homo sapiens, UniProt P43490)
Nicotinamide phosphoribosyltransferase, sequence (P43490 whole entry): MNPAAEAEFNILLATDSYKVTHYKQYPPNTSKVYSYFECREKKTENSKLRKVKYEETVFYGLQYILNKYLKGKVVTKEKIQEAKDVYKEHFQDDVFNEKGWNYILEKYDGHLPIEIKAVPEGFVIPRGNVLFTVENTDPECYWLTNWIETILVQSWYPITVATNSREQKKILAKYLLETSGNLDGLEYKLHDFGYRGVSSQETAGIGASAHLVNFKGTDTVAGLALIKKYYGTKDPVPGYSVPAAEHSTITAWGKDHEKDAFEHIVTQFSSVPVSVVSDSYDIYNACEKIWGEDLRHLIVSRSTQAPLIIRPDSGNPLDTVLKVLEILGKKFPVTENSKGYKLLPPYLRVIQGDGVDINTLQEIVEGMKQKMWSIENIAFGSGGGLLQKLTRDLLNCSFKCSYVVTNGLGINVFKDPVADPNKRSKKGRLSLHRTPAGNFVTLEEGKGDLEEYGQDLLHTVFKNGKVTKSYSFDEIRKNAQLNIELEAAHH

[4] = test system: U-87 MG; assay: Antiproliferative activity against human U-87 MG cells harboring wildtype IDH1 assessed as inhibition of cell growth incubated for 24 hrs by CCK8 assay; type: functional, cell-based, U-87MG ATCC
[5] = test system: U-87 MG; assay: Antiproliferative activity against human U-87 MG cells harboring wildtype IDH1 assessed as inhibition of cell growth incubated for 48 hrs by CCK8 assay; type: functional, cell-based, U-87MG ATCC
[6] = test system: U-87 MG; assay: Antiproliferative activity against human U-87 MG cells harboring wildtype IDH1 assessed as inhibition of cell growth incubated for 72 hrs by CCK8 assay; type: functional, cell-based, U-87MG ATCC
[7] = test system: U-87 MG; type: functional, cell-based, U-87MG ATCC; conditions: Homo sapiens, 24 h
[8] = test system: U-87 MG; type: functional, cell-based, U-87MG ATCC; conditions: Homo sapiens, 48 h
[9] = test system: U-87 MG; type: functional, cell-based, U-87MG ATCC; conditions: Homo sapiens, 72 h
[10] = test system: U-87 MG; assay: Synergistic antiproliferative activity against human U-87 MG cells harboring wildtype IDH1 assessed as inhibition of cell growth incubated for 48 hrs in presence of FK866 by CCK8 assay; type: functional, cell-based, U-87MG ATCC
[11] = test system: U-87 MG; type: functional, cell-based, U-87MG ATCC; conditions: Homo sapiens, 48 h; remark: listed apart in the source
[12] = test system: U-87 MG; assay: Synergistic antiproliferative activity against human U-87 MG cells harboring wildtype IDH1 assessed as combination index incubated for 48 hrs in presence of FK866 by CCK8 assay; type: functional, U-87MG ATCC
[13] = test system: U-87 MG; type: functional, Homo sapiens, U-87MG ATCC; conditions: time 48 hrs
[14] = test system: U-87MG ATCC; assay: Effect on intracellular NADP+ level in human U-87 MG cells harboring wildtype IDH1; type: functional, cell-based
[15] = test system: U-87MG ATCC; type: functional, cell-based; conditions: Homo sapiens, dose 0.5 µM, time 48.0 hrs
[16] = test system: U-87 MG; type: functional, Homo sapiens, U-87MG ATCC; conditions: dose 300 mg/kg; route po; time 35 day
[17] = test system: U-87 MG; type: functional, Homo sapiens, U-87MG ATCC; conditions: dose 300 mg/kg; route po; time 35 day; remark: listed apart in the source
[18] = test system: U-87 MG; type: functional, organism-based; conditions: Homo sapiens; U-87MG ATCC; dose 300.0 mg/kg, route po, time 35.0 day
[19] = test system: U-87 MG; assay: cells; conditions: Homo sapiens, 48 h, read-out: Activity

SMILES | IC50 [1] [nM] | IC50 [2] [µM] | IC50 [3] [nM] | also measured
C[C@H](Nc1nccc(N2C(=O)OC[C@@H]2[C@H](C)F)n1)c1ccc(-c2ccc(NC(=O)/C=C/c3cccnc3)cc2)cc1 | 59.3 | 6.85 | 24.4 | –
CC(C)[C@H]1COC(=O)N1c1ccnc(N[C@@H](C)c2ccc(NC(=O)C3CCN(C(=O)/C=C/c4cccnc4)CC3)cc2)n1 | 308 | 11.1 | 81.2 | –
C[C@H](Nc1nccc(N2C(=O)OC[C@@H]2Cc2ccccc2)n1)c1ccc(-c2ccc(NC(=O)/C=C/c3cccnc3)cc2)cc1 | 130 | 32.8 | 38 | –
C[C@H](Nc1nccc(N2C(=O)OC[C@@H]2c2ccccc2)n1)c1ccc(-c2ccc(NC(=O)/C=C/c3cccnc3)cc2)cc1 | 147 | 36.5 | 221 | –
CC(C)[C@H]1COC(=O)N1c1ccnc(N[C@@H](C)c2ccc(NC(=O)CCCNC(=O)/C=C/c3cccnc3)cc2)n1 | 355 | 9.4 | 45.7 | –
C[C@H](Nc1nccc(N2C(=O)OC[C@@H]2[C@@H](C)OC(C)(C)C)n1)c1ccc(-c2ccc(NC(=O)COc3cccnc3)cc2)cc1 | 252 | 33.9 | 51.4 | –
CC(C)[C@H]1COC(=O)N1c1ccnc(N[C@@H](C)c2ccc(-c3ccc(NC(=O)c4cc5ncccc5o4)cc3)cc2)n1 | 232 | 5.72 | 279 | –
CC(C)[C@H]1COC(=O)N1c1ccnc(N[C@@H](C)c2ccc(-c3ccc(NC(=O)c4cnc5[nH]ccc5c4)cc3)cc2)n1 | 17.7 | 6.44 | 162 | –
C[C@H](Nc1nccc(N2C(=O)OC[C@@H]2[C@@H](C)OC(C)(C)C)n1)c1ccc(-c2ccc(NC(=O)/C=C/c3cccnc3)cc2)cc1 | 78.7 | 14.7 | 42.5 | –
CC(C)[C@H]1COC(=O)N1c1ccnc(N[C@@H](C)c2ccc(NC(=O)CNC(=O)/C=C/c3cccnc3)cc2)n1 | 362 | 4.43 | 15.1 | –
C[C@H](Nc1nccc(N2C(=O)OC[C@@H]2[C@@H](C)O)n1)c1ccc(-c2ccc(NC(=O)COc3cccnc3)cc2)cc1 | 138 | 6.94 | 42.2 | –
Cc1cc([C@H](C)Nc2nccc(N3C(=O)OC[C@@H]3[C@H](C)F)n2)ncc1-c1ccnc(C(F)(F)F)c1 | – | – | – | IC50 [4]: 20.1 µM; IC50 [5]: 7.57 µM; IC50 [6]: 3.54 µM; IC50 [7]: 1040 nM; IC50 [8]: 440 nM; IC50 [9]: 360 nM; IC50 [10]: 1690 nM; IC50 [11]: 450 nM; CI [12]: 0.83; CI [13]: 0.91; Activity [14]: inactive; Activity [15]: inactive; MST [16]: 23.5 days; MST [17]: 26.5 days; Activity [18]: Active; viability at 1 µM [19]: 34.7%
CC(C)[C@H]1COC(=O)N1c1ccnc(N[C@@H](C)c2ccc(-c3ccc(NC(=O)NCc4cccnc4)cc3)cc2)n1 | 1020 | 27 | 374 | –
C[C@H](Nc1nccc(N2C(=O)OC[C@@H]2[C@H](C)F)n1)c1ccc(-c2ccc(NC(=O)c3ccc4nccn4c3)cc2)cc1 | 231 | 7.33 | 39.8 | –
CC(C)[C@H]1COC(=O)N1c1ccnc(N[C@@H](C)c2ccc(NC(=O)CCNC(=O)/C=C/c3cccnc3)cc2)n1 | 284 | 3.24 | 22.4 | –
CC(C)[C@H]1COC(=O)N1c1ccnc(N[C@@H](C)c2ccc(-c3ccc(NC(=O)c4cccnc4)cc3)cc2)n1 | 509 | 36.7 | 109 | –
